Data from patent publication US8337828B2, “Use of thymosin alpha 1, alone or in combination with PTX3 or ganciclovir, for the treatment of cytomegalovirus infection” (priority 2006, dated 2012).
Ends that are not written are not given here.

Test system: MCMV
Test: MCMV infection in mice, virus titers by standard plaque assay on tissues
Format: in vivo, BALB/c and C57BL6 mice
Procedure: BALB/c (FIG. 1a) and C57BL6 (FIG. 1b) mice were infected with 1×10^5 or 5×10^5 PFU of MCMV, respectively. Virus titers were quantified on MEF cells by standard plaque assay on tissues removed at different times (FIG. 1a) or a week after infection (FIG. 1b) and expressed as log 10(mean±standard errors, SE). Thymosin alpha 1 (200 μg/kg given for 7 or 14 days) and GCV (40 mg/kg given three times a week) were administered beginning the day of the infection. Controls received the scrambled peptide. Results are representative of 4 independent experiments. Bars indicate the standard errors. *P<0.05, viral load between treated and untreated mice.
BALB/c or C57BL6 mice were infected with 10^5 or 5×10^5 PFU of MCMV, respectively. Virus titers, expressed as log 10, were quantified on MEF cells by standard plaque assay on lung tissues removed 7 days after the infection. Tα1 (200 μg/kg/daily for a week) and/or GCV (40 mg/kg, three times a week) were administered beginning the day of the infection. Cytokine (pg/ml) levels in culture supernatants of spleen cells (7 days) were determined by ELISA assay. Bars indicate the standard errors. *P<0.05, treated vs untreated mice. Results are representative of 3 independent experiments.
Inbred C57BL6 and BALB/c mice were injected intraperitoneally (i.p.) with 1×10^5 (BALB/c) or 5×10^5 (C57BL6) plaque forming units (PFU) of MCMV. Virus titers were quantified on MEF cells by standard plaque assay on tissues removed a day after treatment. Treatments were as follow: Tα1 ([…]) and PTX3 (1 mg/k/ip) (SIGMA-Tau, Pomezia, Rome, Italy) were given daily for 7 consecutive days beginning the day of the infection. Controls received the scrambled peptide. All organs from uninfected animals were negative viruses. Virus titers are expressed as log 10 (mean±standard errors, SE).
Mice. Wild-type (WT) inbred C57BL6 and BALB/c mice, 8 to 12 weeks old, were purchased from Charles River Breeding Laboratories (Calco, Italy). Pairs of homozygous TLR9-(TLR9−/−), TLR4-(TLR4−/−), and MyD88-(MyD88−/−)-deficient mice (on the C57BL6 background), were bred under specific pathogen-free conditions at the breeding facilities of the University of Perugia, Perugia, Italy. Experiments were performed following protocols approved by the institutional animal committee and in accordance with European Economic Community Council Directive as well as institutional animal care and use guidelines.
Virus, infection and treatments. Stocks of Smith strain MCMV salivary gland extracts were prepared from BALB/c mice and titered in a standard plaque assay on BALB/c murine embryonic fibroblast (MEF) cells (J. Gen. Virol. 2002; 83:2983-2993). Mice were injected intraperitoneally (i.p.) with 1×10^5 (C57BL6) plaque forming units (PFU) of MCMV. Virus titers were quantified on MEF cells by standard plaque assay on tissues removed at different times. Treatments were as follows: Thymosin alpha 1 and the scrambled polypeptide (both from SciClone Pharmaceuticals, San Mateo, CA) were supplied as purified (the endotoxin levels were <0.03 pg/ml, by a standard limulus lysate assay) sterile, lyophilized, acetylated polypeptide. The sequences were as follows: Ac-Ser-Asp-Ala-Ala-Val-Asp-Thr-Ser-Ser-Glu -Ile-Thr-Thr-Lys-Asp-Leu-Lys-Glu-Lys-Lys-Glu-Val-Glu-Glu-Ala-Glu-Asn-O (Tα1) SEQ ID NO:1 and Ac-Ala-Lys-Ser-Asp-Val-Lys-Ala-Glu-Thr-Ser-Ser-Glu-Ile-Asp-Thr-Thr-Glu-Leu -Asp-Glu-Lys-Val-Glu-Val-Lys-Ala-Asn-Glu-OH (scrambled peptide) SEQ ID NO:2. The lyophilized powders were reconstituted in sterile water and 200 μg/kg/i.p. were given daily for 7 or 14 consecutive days beginning the day of the infection. Gancyclovir (GCV) (Cymevene; from Recordati, Milan, Italy) was administered at 40 mg/kg/i.p. three times a week, every other day, beginning 6 h after infection. Controls received the scrambled peptide or the diluent alone.
Plaque assay. Plaque assay was determined on cells grown to subconfluence and incubated with serially diluted virus samples for 2 h at 37° C. (10). […]

Ac-Ser-Asp-Ala-Ala-Val-Asp-Thr-Ser-Ser-Glu -Ile-Thr-Thr-Lys-Asp-Leu-Lys-Glu-Lys-Lys-Glu-Val-Glu-Glu-Ala-Glu-Asn-O (Ac-SDAAVDTSSEITTKDLKEKKEVEEAEN) [Thymosin alpha 1, acidic peptide present in thymus extract with immunoregulatory properties]
viral load in different visceral organs (200 μg/kg for 7 days, both susceptible (BALB/c) and resistant (C57BL6) mice): significantly decreased the viral load
viral load (BALB/c mice infected with a higher PFU (data not shown)): significantly decreased the viral load
viral load in visceral organs (Thymosin alpha 1 given for 14 days, compared with 7 days): higher
viral titers in the lung (Tα1 alone, 200 μg/kg/ip daily for 7 days, BALB/c or C57BL6 mice): decreased the viral titers
viral load in salivary gland and liver (resistant (C57BL6) mice, a week after infection): particularly evident
